The nature of experiment [1]: growth suppression of PTEN-null colon cells, dose response, cell-based, HCT116 PTEN knockout (AID 1047).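 Also: HCT116 colon tumor cells with PTEN knocked out; cells exposed to compound for 60 hours before readout; potency for loss of cell viability measured by luminescence.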 It counts as functional.
A short description of experiment [2]: growth suppression of beta-catenin-knockout colon cells, dose response, cell-based, HCT116, human colon tumor (AID 1045).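 Also: HCT116 colon tumor cells with beta catenin knocked out; cells exposed to compound for 60 hours.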 It counts as functional.
For experiment [3], the target named is T1, Heat shock factor protein 1 (Mus musculus, UniProt P38532).
T1 sequence (P38532 whole entry): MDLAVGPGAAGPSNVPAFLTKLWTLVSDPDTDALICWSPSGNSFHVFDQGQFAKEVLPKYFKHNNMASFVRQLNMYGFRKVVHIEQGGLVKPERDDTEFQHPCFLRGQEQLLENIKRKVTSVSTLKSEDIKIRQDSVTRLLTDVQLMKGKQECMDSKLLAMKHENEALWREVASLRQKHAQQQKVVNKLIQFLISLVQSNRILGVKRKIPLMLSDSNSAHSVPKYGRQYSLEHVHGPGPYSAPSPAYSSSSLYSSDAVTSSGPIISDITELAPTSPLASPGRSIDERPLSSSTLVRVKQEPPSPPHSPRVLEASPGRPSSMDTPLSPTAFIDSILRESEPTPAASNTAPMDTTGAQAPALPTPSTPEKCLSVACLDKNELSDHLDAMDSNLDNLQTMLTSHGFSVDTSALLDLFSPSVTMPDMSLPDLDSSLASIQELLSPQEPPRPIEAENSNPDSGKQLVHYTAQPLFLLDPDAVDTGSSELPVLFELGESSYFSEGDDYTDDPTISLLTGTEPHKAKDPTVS
Put plainly: inhibition of MG132-induced HSE-luciferase signal, confirmation, cell-based, NIH3T3, luminescence, dose retest (AID 2382).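 Also: NIH3T3 fibroblasts with HSF1-driven luciferase reporter stressed by proteasome inhibitor MG132; luminescence from HSF1-driven luciferase expression after 8 hours of MG132 stress.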 It counts as functional.

A short description of another experiment: cells. It counts as functional.
Experiment [4] deals with T2, Corticotropin-releasing factor receptor 2/Corticotropin-releasing factor-binding protein (Homo sapiens, UniProt P24387+Q13324).
T2 sequence (Q13324 whole entry): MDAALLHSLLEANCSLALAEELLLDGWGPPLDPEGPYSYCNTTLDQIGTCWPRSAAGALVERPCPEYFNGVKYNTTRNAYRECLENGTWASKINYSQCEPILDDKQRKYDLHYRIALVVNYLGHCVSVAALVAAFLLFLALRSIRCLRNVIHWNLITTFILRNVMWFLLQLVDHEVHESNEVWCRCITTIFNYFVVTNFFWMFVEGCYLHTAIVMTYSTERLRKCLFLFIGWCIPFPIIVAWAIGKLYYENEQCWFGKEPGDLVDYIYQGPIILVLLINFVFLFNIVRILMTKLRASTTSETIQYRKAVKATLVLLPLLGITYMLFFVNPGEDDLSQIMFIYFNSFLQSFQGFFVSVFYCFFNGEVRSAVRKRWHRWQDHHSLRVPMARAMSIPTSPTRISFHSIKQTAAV
T2 sequence (P24387 whole entry): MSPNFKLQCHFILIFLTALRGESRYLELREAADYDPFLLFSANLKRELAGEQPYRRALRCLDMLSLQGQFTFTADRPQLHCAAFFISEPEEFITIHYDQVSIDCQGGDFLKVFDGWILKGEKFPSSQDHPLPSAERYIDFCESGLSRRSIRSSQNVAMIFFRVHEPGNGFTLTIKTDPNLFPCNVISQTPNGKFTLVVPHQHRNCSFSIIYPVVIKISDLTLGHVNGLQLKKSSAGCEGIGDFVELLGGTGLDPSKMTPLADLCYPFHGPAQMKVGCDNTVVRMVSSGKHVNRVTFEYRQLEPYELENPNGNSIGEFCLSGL
Put plainly: activators of CRF receptor 2 with binding protein – uHTS hits, confirmation (AID 602473). It counts as functional. To be noted: read-out: EC50_Mean.

In another experiment the test system is INS1. Put plainly: beta cell apoptosis inhibitors, cytokine rescue, dose response, luminescence, retest (AID 449756).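 Also: cell death triggered by IL-1 beta plus TNF-alpha plus IFN-gamma mixture; protective hits raise ATP signal compared with cytokine alone wells.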 It counts as functional, cell-based. Conditions: Rattus norvegicus.
In experiment [5] the target is T2, Corticotropin-releasing factor receptor 2/Corticotropin-releasing factor-binding protein. Put plainly: Dose Response confirmation of uHTS hits for small molecule antagonists of the CRF-binding protein and CRF-R2 receptor complex. Conditions: read-out: IC50_Mean. It counts as functional.
Experiment [6] deals with T3, Rac GTPase-activating protein 1 (Homo sapiens, UniProt Q9H0H5).
T3 sequence (Q9H0H5 whole entry): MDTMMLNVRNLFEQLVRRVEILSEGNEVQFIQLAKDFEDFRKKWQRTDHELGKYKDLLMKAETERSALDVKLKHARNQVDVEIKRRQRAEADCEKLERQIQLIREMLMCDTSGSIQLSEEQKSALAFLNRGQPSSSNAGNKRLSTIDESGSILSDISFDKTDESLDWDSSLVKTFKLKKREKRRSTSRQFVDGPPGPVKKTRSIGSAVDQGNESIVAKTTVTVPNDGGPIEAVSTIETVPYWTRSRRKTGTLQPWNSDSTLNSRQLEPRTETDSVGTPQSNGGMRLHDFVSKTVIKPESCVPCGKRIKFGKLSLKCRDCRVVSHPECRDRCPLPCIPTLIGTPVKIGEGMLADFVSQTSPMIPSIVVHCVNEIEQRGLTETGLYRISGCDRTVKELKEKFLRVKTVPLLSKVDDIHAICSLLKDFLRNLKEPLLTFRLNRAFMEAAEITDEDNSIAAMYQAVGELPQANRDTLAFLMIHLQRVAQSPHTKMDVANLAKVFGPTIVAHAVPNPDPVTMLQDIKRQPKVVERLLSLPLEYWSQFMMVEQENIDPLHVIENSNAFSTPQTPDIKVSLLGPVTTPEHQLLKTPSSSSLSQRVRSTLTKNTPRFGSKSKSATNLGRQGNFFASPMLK
The experiment can be described thus: MgcRacGAP GTPase-activating activity inhibitors, confirmation, biochemical, ADP Hunter fluorescence, primary and confirmatory (AID 624330). It counts as functional.

In another experiment the target is T4, Cytochrome P450 1A2 (Homo sapiens, UniProt P05177).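 Also: PubChem cytochrome P450 panel assay, CYP1A2 panel member.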
T4 sequence (P05177 whole entry): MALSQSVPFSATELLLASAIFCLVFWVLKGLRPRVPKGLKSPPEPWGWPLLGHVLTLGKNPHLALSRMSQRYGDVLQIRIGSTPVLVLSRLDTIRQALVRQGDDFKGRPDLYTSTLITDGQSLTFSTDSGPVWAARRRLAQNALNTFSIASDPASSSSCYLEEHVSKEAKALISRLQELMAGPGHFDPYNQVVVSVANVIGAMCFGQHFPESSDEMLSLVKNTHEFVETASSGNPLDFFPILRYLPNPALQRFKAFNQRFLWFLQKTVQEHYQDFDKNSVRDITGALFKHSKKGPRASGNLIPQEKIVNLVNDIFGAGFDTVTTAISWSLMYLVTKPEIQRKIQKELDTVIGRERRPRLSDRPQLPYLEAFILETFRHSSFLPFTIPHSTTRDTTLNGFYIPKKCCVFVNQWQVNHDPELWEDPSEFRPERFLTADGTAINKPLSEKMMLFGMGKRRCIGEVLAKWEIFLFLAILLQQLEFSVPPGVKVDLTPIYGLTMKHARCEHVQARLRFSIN

Calls of active or inactive are those of the source.

Results on 37 compounds are retold here after ChEMBL document CHEMBL1201862, “PubChem BioAssay data set” (2004).

Regarding `CCc1nn2cc(C(=O)c3cc(Cl)ccc3O)cnc2c1-c1ccc(F)cc1`, the results for the EC50 in [1] and in experiment [2] were 30.7 µM (active) and 28.3 µM (active), respectively.
Consider `Cc1cccc2sc(NNC(=O)C3COc4ccccc4O3)nc12` (configuration not stated), for which the figures for the EC50 in experiment [1], in [3] and in [2] were 38.9 µM (active), > 195 µM (not active) and 36.7 µM (active), respectively.
With `Cc1ccc(/C=C2\SC(N3CCCC3)=NC2=O)cc1`, in “cells”, the IC50 was 5.13 µM (active).
On the same count and under the same terms, as for `O=C(OCc1c(Cl)cccc1Cl)c1ccccn1`, the figure is 10.6 µM (active).
For `CCCCOC(=O)c1ccc(NC(c2ccc(C)cc2)P(=O)(OC)OC)cc1` (configuration not stated), the EC50 in experiment [4] was > 53 µM (inactive). In the experiment on INS1, the AC50 was 30.8 µM (active). Moreover, in experiment [5], the IC50 is > 47.1 µM (inactive).
Take `O=C(CC1CCCC1)OCn1nnc2ccccc2c1=O`: the IC50 in “cells” was 11.1 µM (active).
As for `CSCSC1=C(C#N)C(c2ccccc2Cl)C(C(C)=O)=C(C)N1` (configuration not stated), the EC50 in experiment [4] is > 53 µM (inactive). Besides, the IC50 in [5] is > 47.1 µM (inactive).
As for `CC1C(=O)C(C)C(c2cccs2)NC1c1cccs1` (configuration not stated), the EC50 in experiment [4] was > 53 µM (inactive). Besides, the IC50 in experiment [5] was > 47.1 µM (inactive).
Take `CCOC(=O)CN(C#N)c1nc(N(C)C)nc(N(C)C)n1`: the IC50 in the experiment “cells” was 26.9 µM (active).
Take `FC(F)(F)c1nnc2sc(-c3cccs3)nn12`: in [4], the EC50 is > 53 µM (inactive). The IC50 in experiment [5] is > 47.1 µM (inactive).
For the compound `CCOc1ccc(-n2c(=O)c3c4c(sc3n(CC(=O)NCc3ccco3)c2=O)CCC4)cc1`, the EC50 was 30.2 µM (active) in experiment [1] and 27.7 µM (active) in [2].
For `CN(C(=O)COC(=O)c1ccc([N+](=O)[O-])cc1Cl)C1CCCCC1`, the IC50 in the experiment “cells” was 6.26 µM (active).
As for `COC(=O)C(OC(=O)c1ccccc1)C(C)Br` (configuration not stated), the EC50 in [4] was > 53 µM (inactive). Besides, in experiment [5], the IC50 is > 47.1 µM (inactive).
The like results for `COc1ccc(/C=C2\CCC(C3CCCC3)C2=O)cc1OC` (configuration not stated) were, in that order, > 53 µM (inactive) and > 47.1 µM (inactive).
In the case of `CN(C)c1ncnc2c1N=C1CC(C)(C)CC(NCCCC(=O)O)=C1S2`, the EC50 in [4] is > 53 µM (inactive). Moreover, the IC50 in experiment [6] is 78.8 µM (active); in experiment [5] it was > 47.1 µM (inactive).
As to `Cc1cc2nc(-c3ccc(SCC(=O)N4CCc5ccccc54)nc3)[nH]c2cc1C`, the AC50 on Cytochrome P450 1A2 was 3.16 µM (inconclusive). In addition, the figures for the EC50 in [1] and in experiment [2] were 6.92 µM (active) and 7.55 µM (active), respectively.
With `Cc1nn(-c2ccc([N+](=O)[O-])cc2)c(N)c1-c1ccccc1`, the EC50 in experiment [4] was > 53 µM (inactive). Moreover, the IC50 in [5] was > 47.1 µM (inactive).
Regarding `CC(C)C(=O)Nc1cccc(-c2nc3ccccc3c(=O)o2)c1`, the IC50 in the experiment “cells” was 20.7 µM (active).
Consider `CCOC(=O)c1c(C)[nH]c(C)c1C(=O)COC(=O)/C=C/c1ccc(Cl)cc1`, for which the EC50 in experiment [4] was > 53 µM (inactive). The IC50 in experiment [5] was > 47.1 µM (inactive).
Regarding `COc1ccc(N2C(=O)/C(=C\NNS(=O)(=O)c3ccc(C)cc3)c3ccccc3C2=O)cc1OC`, the EC50 in [4] was > 53 µM (inactive); in experiment [1], 40.4 µM (active).
For the compound `CCCN1CCN(C2CCCCC2NS(=O)(=O)c2ccc(Cl)cc2)CC1` (configuration not stated), the EC50 in experiment [4] is > 53 µM (inactive). Moreover, the IC50 in experiment [5] was > 47.1 µM (inactive).
For `O=[N+]([O-])c1ccc(CN2CCN(c3ccccc3)CC2)o1`, in “cells”, the IC50 was 0.13 µM (active).
With `CC(C)CCOP(=O)(c1ccc(N(C)C)cc1)C(Nc1ccccc1)c1ccc(N(C)C)cc1` (configuration not stated), the EC50 in experiment [4] was > 53 µM (inactive). Besides, in experiment [5], the IC50 was > 47.1 µM (inactive).
The like results for `COc1cccc(C2C(C(=O)c3ccc(C)o3)=C(O)C(=O)N2CCN2CCOCC2)c1OC` (configuration not stated) were, in that order, > 53 µM (inactive) and > 47.1 µM (inactive).
Taken in the same sequence, the figures for `Cc1ccc(S(=O)(=O)N2CCC(c3nc4c(nnn4Cc4ccccc4)c(=O)[nH]3)CC2)cc1` were > 53 µM (inactive) and > 47.1 µM (inactive).
In the case of `O=C(COc1ccccc1)NCCSCc1ccc(Cl)cc1`, the IC50 in “cells” is 22.2 µM (active).
Consider `CCN(CC(=O)Nc1ccc(OC)cc1)C(=O)c1cc(S(=O)(=O)N2CCOCC2)ccc1N1CCCC1`, for which the EC50 in experiment [4] is > 53 µM (inactive). Moreover, the IC50 in experiment [5] was > 47.1 µM (inactive).
Taken in the same sequence, the figures for `CC1CCN(C(=O)c2nc[nH]c2C(=O)N[C@@H](C)C(=O)OC(C)(C)C)CC1` were > 53 µM (inactive) and > 47.1 µM (inactive).
As to `O=[N+]([O-])c1ccccc1C=NNC(=S)NN=Cc1ccccc1[N+](=O)[O-]`, the EC50 in experiment [4] is > 53 µM (inactive). Moreover, the IC50 in [5] is > 47.1 µM (inactive).
As to `O=C(COC(=O)c1cc(Br)ccc1Cl)NC1CCCC1`, the IC50 in “cells” is 18.2 µM (active).
As for `CC1=C(C(=O)Nc2ccccc2C)C(c2ccc(C)o2)n2c(s/c(=C/c3ccccc3)c2=O)=N1` (configuration not stated), the EC50 in experiment [1] is 347 µM (active); in experiment [2], 442 µM (active).
Taken in the same sequence, the figures for `CN(C)c1ccc(/C=N/c2ccc(N(C)C)cc2)cc1` were 28.5 µM (active) and 524 µM (active).
Consider `CCC/C(=N/CC(=O)O)C1=C(O)C(C(=O)OC)C(C)(C)CC1=O` (configuration not stated), for which the EC50 in experiment [4] is > 53 µM (inactive). Moreover, in [5], the IC50 is > 47.1 µM (inactive).
Taken in the same sequence, the figures for `COC(=O)c1ccc(/C(O)=C(\C#N)c2nc3ccccc3s2)cc1` were > 53 µM (inactive) and 3.93 µM (active).
As to `CC(C)(C)C(=O)/C=C/Nc1ccccc1O`, in the experiment “cells”, the IC50 is 3.27 µM (active).
Turning to `COc1ccc(C2CC(c3cccs3)=NN2C(=O)c2ccccc2)cc1OC` (configuration not stated), the EC50 in [4] is > 53 µM (inactive). The IC50 in [5] was > 47.1 µM (inactive).
With `c1ccc(C2=Nc3ccccc3OC2)cc1`, the IC50 in “cells” was 7.95 µM (active).
